In patent US20100234592A1, “Corrosion Inhibitors Having Increased Biodegradability and Reduced Toxicity” (priority 2006, published 2010):
Read-outs that look alike come from different tables or passages of the source.

Tests used:
[1] = LPR test (test conditions analogous to ASTM D 2776); design: concentration or dose not given beside the values
Protocol: The products were also tested in the LPR test (test conditions analogous to ASTM D 2776).

[2] = Shell wheel test (corrosion inhibition); details: carbon steel coupons in saltwater/petroleum mixture, pH 3.5, 70° C., 24 hours; 50 ppm of a 40% solution of the inhibitor; from mass decrease based on a blank value
Protocol: The inventive compounds were tested as corrosion inhibitors in the Shell wheel test. Coupons of carbon steel (DIN 1.1203 with surface area 15 cm^2) were immersed into a saltwater/petroleum mixture (9:1.5% NaCl solution adjusted to pH 3.5 with acetic acid) and exposed to this medium at a peripheral speed of 40 rpm at 70° C. for 24 hours. The dosage of the inhibitor was 50 ppm of a 40% solution of the inhibitor. The protection values were calculated from the mass decrease of the coupons based on a blank value.

Shaking foam test = format: physicochemical; details: 50 ml of a 3% aqueous solution in demineralized water shaken 20 times within 10 seconds; graded weakly foaming, foaming or highly foaming
[3] = Biodegradability (OECD 306)
Skeletonema costatum = assay: Toxicity (EC50 Skeletonema costatum); format: cell-based

Row | Molecule | Protection after 10 min [1] | Protection after 30 min [1] | Protection after 60 min [1] | Ø % protection [2] | Foaming behavior (Shaking foam test) | Biodegradability ([3]; OECD 306) | EC50 (Skeletonema costatum) | Biodegradability [3] | Toxicity EC50 (Skeletonema costatum)
1 | N-Cocoyl-DL-methionine morpholinium salt [compound from example 5] | 90.3% | 94.2% | 98.9% | 85% |  |  |  |  | 
2 | N-Dodecyl-DL-methionine dibutylammonium salt [compound from example 4] | 74.8% | 87.3% | 96.8% | 80% | weakly foaming |  |  |  | 
3 | CCCCCCCCCCCCCC(=O)N[C@@H](CC(=O)[O-])C(=O)[O-].[Na+].[Na+] [comparative 3, N-myristoyl-L-aspartic acid disodium salt, reference compound] | 20.0% | 42.6% | 47.1% | 38% | highly foaming | 50.3% | 9.5 µg/mL |  | 
4 | N-Oleyl-DL-methionine 2-(2-hydroxyethoxy)ethylammonium salt [compound from example 7] | 78.5% | 92.9% | 98.5% | 82% | weakly foaming |  |  |  | 
5 | CCCCCCCCNC(CCSC)C(=O)O.NCCO (racemic) [compound from example 1, N-Octyl-DL-methionine monoethanolammonium salt] | 60.5% | 75.3% | 88.4% | 63% | weakly foaming |  |  | 92.4% | 44.5 µg/mL
6 | CCCCCCCCNC(CCSC)C(=O)O.OCCN(CCO)CCO (racemic) [compound from example 2, N-Octyl-DL-methionine triethanolammonium salt] | 62.9% | 76.1% | 90.0% | 72% | weakly foaming |  |  |  | 
7 | N-Dodecyl-DL-methionine cyclohexylammonium salt [compound from example 3] | 76.4% | 88.4% | 97.2% | 78% | weakly foaming | 84.0% |  |  | 22.3 µg/mL
8 | CCCCCCCCCCCC(=O)NCC(=O)[O-].[Na+] [comparative 2, N-lauroylglycine sodium salt, reference compound] | 15.4% | 35.2% | 42.9% | 45% | highly foaming | 44.5% | 8.5 µg/mL |  | 
9 | CCCCCCCC/C=C\CCCCCCCCNC(CCSC)C(=O)O.OCCN(CCO)CCO (racemic) [compound from example 8, N-Oleyl-DL-methionine triethanolammonium salt] | 80.1% | 94.5% | 98.6% | 85% | weakly foaming |  |  | 85.4% | 13.6 µg/mL
10 | N-Cocoyl-DL-methionine N,N-diethyl-(2-hydroxyethyl)-ammonium salt [compound from example 6] | 92.0% | 96.7% | 99.0% | 83% |  |  |  |  | 15.4 µg/mL
